Experimental data taken from patent publication US20100041597A1, “PEPTIDES TARGETED TO PROTEIN KINASE C ISOFORMS AND USES THEREOF” (priority 2005, published 2010).
Where no end group is shown, it is not given here.

Tests used:
[1] = test system: LS180 colon cancer tumours; experiment: LS180 colon cancer tumours in mice, combination with doxorubicin; type: in vivo; details: mice treated with only doxorubicin (and control cohorts)
From the text: Both in vitro and in vivo data support the efficacy of PhGα1 in limiting the effect of multi-drug resistance (MDR) in colorectal drug-resistant tumours when used in combination treatment with chemotherapy. Specifically, studies have shown that establishment of LS180 colon cancer tumours in mice (M1 stage) treated with PhGα1 in combination with an anthracycline chemotherapeutic, doxorubicin, was delayed approximately 100% (p<0.03) versus control cohorts and mice treated with only doxorubicin (28 days compared to 14 days). Results were also observed for tumour transition from the M1 to M2 stage.

PKC-ε = experiment: In vitro competition with anti-PKC-ε antibody, Protocol B, IMR-32 cells; type: binding, human
Description: (§1) The ability of the peptides PRE 2 and PRE 3 (see Table 3) to interfere with the binding of a PKC-α-specific polyclonal antibody (Santa Cruz Biotechnology, Inc.) to PKC-α was determined using a modified version of the protocol outlined above in which the test peptide was added directly to the cell extract prior to electrophoresis at a concentration of either 5× or 15× the concentration of the protein applied to each well of the gel for the Western blots (20 μg).
Peptides PRE 2, PRE 3 and PRE 4 (see Table 3) were tested for their ability to interfere with the binding of isoform-specific polyclonal antibodies (Santa Cruz Biotechnology, Inc.) to PKC-ε using the general protocol described in Example 3. Two bands, representing alternate splicing variants of PKC-ε, were identified on the Western blot using this anti-PKC-ε antibody.

PKC-β [2] = experiment: In vitro competition with anti-PKC-β antibody, Protocol B, IMR-32 cells; type: binding, human
Description: as §1
Peptides PRE 2 and PRE 3 (see Table 3) were tested for their ability to interfere with the binding of a PKC-β-specific polyclonal antibody (Santa Cruz Biotechnology, Inc.) to PKC-β using the general protocol described in Example 3.

PKC-β [3] = experiment: In vitro competition with anti-PKC-β antibody, Protocol A, IMR-32 cells; type: binding, human; details: for Band Intensity / Inhibition (%) / Relative Intensity (%): PKC-β, IMR-32, Table 6
Description: (§2) Cell lysates from either IMR-32 (human neuroblastoma) cells or C6Cx43 cells (rat glioma transfected cells overexpressing connexin 43) were obtained using standard protocols and the proteins of the lysate were separated by SDS PAGE electrophoresis and electrotransferred onto a nitrocellulose membrane. The membrane was incubated for 30 minutes in blocking buffer (TBST) containing the test peptide at either 5× or 20× the concentrations of the primary antibody. A primary polyclonal antibody specific for PKC-α (Santa Cruz Biotechnology, Inc., CA) was then added (15 μg/ml) and the membrane incubated for a further 45 minutes. Finally, the primary antibody was detected with a secondary antibody conjugated to alkaline phosphatase using standard procedures. The intensity of the band corresponding to PKC-α was assessed by scanning and densitometry using the Gel-Pro software (Media Cybernetics) to obtain relative band intensities (average of 3 replicas). Control assays were conducted as described above except that blocking buffer without peptide was used.
Peptides PRE 1, PRE 2 and PRE 3 (see Table 3) were tested for their ability to interfere with the binding of a PKC-β-specific polyclonal antibody (Santa Cruz Biotechnology, Inc.) to PKC-β using the general protocol described in Example 1. […] It is worth noting in this regard that PKC-α and PKC-β belong to the same sub-group of PKCs (cPKCs).

PKC-α [4] = target: T1, PKC-α (Homo sapiens, UniProt P17252); experiment: In vitro competition with anti-PKC-α antibody, Protocol B (peptide added to cell extract before electrophoresis), IMR-32 cells; type: binding; design: subcellular localisation of endogenous PKC-α in IMR-32 cells; endogenous in cells; host or cells: IMR-32
Description: Peptides PRE 3 and PRE 4 (see Table 3) were tested for their ability to interfere with the binding of isoform-specific polyclonal antibodies (Santa Cruz Biotechnology, Inc.) to PKC-α, PKC-βI or PKC-βII using the general protocol described in Example 3.

PKC-α [5] = target: T1, PKC-α; experiment: In vitro competition with anti-PKC-α antibody on blotted cell lysate, Protocol A, IMR-32 cells; type: binding; design: subcellular localisation of endogenous PKC-α in IMR-32 cells; endogenous in cells; host or cells: IMR-32; details: Protocol A; for Band Intensity / Inhibition (%) / Relative Intensity (%): IMR-32, Table 4
Description: The ability of the peptides to interfere with the binding of a PKC-α-specific monoclonal antibody to PKC-α was determined using the following protocol.
as §2, with “The membrane was incubated for 30 minutes in blocking buffer (TBST) containing the test peptide at either 5× or 20× the concentrations of the primary antibody.” left out
The results are expressed as relative band intensity and as a percentage of the intensity of the corresponding band in the control assay (“Relative intensity (%)”). “% inhibition” relates to the percentage of the PKC-α band that is inaccessible to the antibody.

`COc1cccc2c1C(=O)c1c(O)c3c(c(O)c1C2=O)C[C@@](O)(C(=O)CO)C[C@@H]3O[C@H]1C[C@H](N)[C@H](O)[C@H](C)O1` [doxorubicin] was tested, and the “time to establishment of LS180 tumours (M1 stage)” value [1] was 14 days.

For KDAQNLIGISL-NH2 [PRE 2], the “effect on antibody binding to PKC-ε” value (PKC-ε) was “some cross-reactivity with PKC-ε”, the “effect on antibody binding to PKC-β” value (PKC-β [2]) was “some cross reactivity” and the “Band Intensity” value (PKC-β [2]; 100 μg, PKC-β, IMR-32, Table 8) was 0.0322. For the same compound, the “Inhibition (%)” value (PKC-β [2]; 100 μg, PKC-β, IMR-32, Table 8) was 54.7%, the “Relative Intensity (%)” value (PKC-β [2]; 100 μg, PKC-β, IMR-32, Table 8) was 45.3% and the “effect on antibody binding to PKC-β” value (PKC-β [3]) was “some cross reactivity”. For the same compound, the “Band Intensity” value (PKC-β [3]; 75 μg) was 0.800, the “Inhibition (%)” value (PKC-β [3]; 75 μg) was 31.0% and the “Relative Intensity (%)” value (PKC-β [3]; 75 μg) was 69.0%. For the same compound, the “Band Intensity” value (PKC-β [3]; 300 μg) was 0.403, the “Inhibition (%)” value (PKC-β [3]; 300 μg) was 65.3% and the “Relative Intensity (%)” value (PKC-β [3]; 300 μg) was 34.7%. The “effect on antibody binding to PKC-α” value (PKC-α [4]) was “effectively interfered with PKC-α antibody binding to PKC-α”, the “Band Intensity” value (PKC-α [4]; 100 μg, PKC-α, IMR-32, Table 7) was 0.0103 and the “Inhibition (%)” value (PKC-α [4]; 100 μg, PKC-α, IMR-32, Table 7) was 99.9%. The “Relative Intensity (%)” value (PKC-α [4]; 100 μg, PKC-α, IMR-32, Table 7) was 0.135%, the “Band Intensity” value (PKC-α [5]; 75 μg peptide) was 0.917 and the “Inhibition (%)” value (PKC-α [5]; 75 μg peptide) was 56.1%. The “Relative Intensity (%)” value (PKC-α [5]; 75 μg peptide) was 43.9%, the “Band Intensity” value (PKC-α [5]; 300 μg peptide) was 0.192 and the “Inhibition (%)” value (PKC-α [5]; 300 μg peptide) was 90.9%. For the same compound, the “Relative Intensity (%)” value (PKC-α [5]; 300 μg peptide) was 9.1% and the “effect on antibody binding to PKC-α” value (PKC-α [5]) was “mask the antigenic site of PKC-α”.
